Assay results as given in patent US4043993A, “New pentapeptides and methods for their production” (Parke, Davis & Company, priority 1976, dated 1977).
Several values for one entry are separate records, joined by “and”; a condition that tells them apart may be missing. Equal values may be shown once. No end group written: not given here.

Tested on: LRF (luteinizing hormone release factor) induced luteinizing hormone (LH) release
Experiment: LRF antagonist activity in vitro in rat anterior pituitary cell cultures
Format: cell-based
Text: Pentapeptides of this invention were screened for LRF antagonist activity in vitro using rat anterior pituitary cell cultures as described by Vale et. al. [Endocrinology, 91, 562 (1972)]. The inhibition of LRF (luteinizing hormone release factor) induced luteinizing hormone (LH) release into the culture medium is the endpoint in this in vitro bioassay.

[1] = Molar Conc. 1×10^-6, LRF Control 2.5×10^-10
[2] = Molar Conc. 1×10^-7, LRF Control 3.5×10^-10
[3] = Molar Conc. 2.5×10^-7, LRF Control 3.5×10^-10
[4] = Molar Conc. 6×10^-7, LRF Control 3.5×10^-10
[5] = Molar Conc. 6×10^-8, LRF Control 3.5×10^-10

Row | Substance | % LH Release Inhibition [1] | LH Value [1] | % LH Release Inhibition [2] | LH Value [2] | % LH Release Inhibition [3] | LH Value [3] | % LH Release Inhibition [4] | LH Value [4] | % LH Release Inhibition [5] | LH Value [5] | LH Value (LRF alone (LRF Control), Molar Conc. 2.5×10^-10) | LH Value (LRF alone (LRF Control), Molar Conc. 3.5×10^-10)
1 | N-Benzyloxycarbonyl-D-2-azetidinecarbonyl-N^im -benzyl-L-histidyl-O-benzyl-L-tyrosyl-O-benzyl-L-seryl-D-alanine methyl ester | 102% | 5.72 ng/mL | 53% | 33.60 ng/mL | 78% | 22.34 ng/mL | 89% | 17.18 ng/mL | 29% | 44.92 ng/mL |  | 
2 | LRF: luteinizing hormone releasing factor, also referred to as luteinizing hormone releasing hormone, or LH-RH; stimulates secretion of luteinizing hormone (QHWSYGLRPG; ends and bridges not checked; UniProt P01148 24-33, looked up) [reference compound] |  |  |  |  |  |  |  |  |  |  | 38.98 ng/mL | 33.78 ng/mL and 41.70 ng/mL and 58.17 ng/mL and 42.57 ng/mL
